In brackets after ≈: the same amount, converted by molar mass. Activity calls are given as the source filed them. The rule behind the calls is not given here.
What was measured:
[1] = Intrinsic clearance in human liver microsomes at 0.5 uM incubated for 45 mins in presence of NADPH by LC-MS/MS analysis; assay type: ADME, Microsome; details: 0.75 h
[2] = Intrinsic clearance in mouse liver microsomes at 0.5 uM incubated for 45 mins in presence of NADPH by LC-MS/MS analysis; assay type: ADME, Microsome; details: 0.75 h
[3] = tested on: Mycobacterium tuberculosis; assay: Antimycobacterial activity against Mycobacterium tuberculosis H37Rv intracellular forms infected in human THP1 cells assessed as inhibition of microbial growth incubated for 5 days by luciferase reporter gene assay; assay type: functional; details: THP-1, 120 h
[4] = Solubility in pH 6.5 FaSSIF incubated for 4 hrs by HPLC-UV based assay; assay type: physicochemical
[5] = tested on: Mycobacterium tuberculosis; assay: Antimycobacterial activity against Mycobacterium tuberculosis extracellular forms assessed as inhibition of microbial growth; assay type: functional
[6] = Kinetic aqueous solubility in pH 7.4 PBS incubated for 1 hr by CLND assay; assay type: physicochemical; details: read-out: Kinetic_solubility
[7] = Permeability at pH 7.4 incubated for 4 hrs by PAMPA method; assay type: ADME; details: read-out: permeability
[8] = tested on: HepG2; assay: Cytotoxicity in human HepG2 cells assessed as reduction in cell viability incubated for 48 hrs by Cell-titer Glo kit based assay; details: HepG2, 48 h
[9] = Stability in human liver microsomes assessed as GSH-conjugates formation at 25 uM incubated for 60 mins in presence of NADPH and GSH by LC-MS/MS analysis; assay type: ADME, Microsome; details: 1 h
[10] = target: T1, Cytochrome P450 3A4 (Homo sapiens, UniProt P08684); assay: Inhibition of CYP3A4 (unknown origin) in presence of cofactor; assay type: ADME
T1 sequence (P08684 whole entry): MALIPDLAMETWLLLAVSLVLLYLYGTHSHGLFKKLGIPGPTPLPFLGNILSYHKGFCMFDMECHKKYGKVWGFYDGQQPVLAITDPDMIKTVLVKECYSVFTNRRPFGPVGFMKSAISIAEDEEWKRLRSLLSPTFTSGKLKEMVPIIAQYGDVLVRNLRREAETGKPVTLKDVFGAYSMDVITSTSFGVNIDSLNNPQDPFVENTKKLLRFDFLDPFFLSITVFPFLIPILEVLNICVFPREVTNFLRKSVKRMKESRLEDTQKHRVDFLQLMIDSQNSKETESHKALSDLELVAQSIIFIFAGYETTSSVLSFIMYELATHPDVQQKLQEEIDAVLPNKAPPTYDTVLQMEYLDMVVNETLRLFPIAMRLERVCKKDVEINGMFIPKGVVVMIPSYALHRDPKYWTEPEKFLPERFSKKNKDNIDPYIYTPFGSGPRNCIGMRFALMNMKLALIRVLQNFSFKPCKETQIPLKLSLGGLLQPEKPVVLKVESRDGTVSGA

[11] = tested on: Mycobacterium tuberculosis; assay: Antimycobacterial activity against Mycobacterium tuberculosis H37Rv assessed as inhibition of microbial growth incubated for 6 days by alamar blue resazurin assay; assay type: functional; details: 144 h
[12] = tested on: Hepatocyte; assay: Cytotoxicity in human primary hepatocytes assessed as reduction in cell viability up to 100 uM incubated for 72 hrs by MTT assay; assay type: cell-based
[13] = tested on: THP-1; assay: Cytotoxicity in human THP1 cells assessed as reduction in cell viability incubated for 5 days hrs by ATPLite assay; assay type: cell-based; details: THP-1, 120 h
[14] = tested on: Mycobacterium tuberculosis; assay: Antimycobacterial activity against Mycobacterium tuberculosis H37Rv infected in C57BL/6 mouse model of acute infection assessed as reduction in mycobacterial load in lung at 200 mg/kg dosed once per day for 8 days co-dosed with 50 mg/kg/day CYP inhibitor ABT; assay type: functional, organism-based
[15] = target: T1, Cytochrome P450 3A4; assay: Inhibition of CYP3A4 (unknown origin) in absence of cofactor; assay type: ADME

Structure (SMILES)	CLH [1] [mL/min/g]	CLH [2] [mL/min/g]	IC90 [3] [µM]	other results
O=C(CCSc1nc2cc(Cl)ccc2o1)N1CCC(F)(F)C1	11.3	83.6	1.1	–
CS(=O)(=O)C1CCN(C(=O)CCSc2nc3cc(Cl)ccc3o2)C1 (racemic)	< 0.4	2.1	> 50	–
O=C(CCSc1nc2cc(Cl)ccc2[nH]1)N1CCCC1	9.2	56.8	> 50	–
CN(C(=O)CCSc1nc2cc(Cl)ccc2o1)C1CCS(=O)(=O)CC1	< 0.4	0.7	7.7	solubility at 4 h [4]: 178 µg/mL (≈ 442 µM); MIC [5]: 40 µM; solubility kinetic at 1 h [6]: > 328 µM; Papp at 4 h [7]: 44 ×10⁻⁶ cm/s; IC50 [8]: > 100 µM
CC1CCCN1C(=O)CCSc1nc2cc(Cl)ccc2o1 (racemic)	8.5	98	25.5	–
CCNC(=O)CCSc1nc2cc(Cl)ccc2o1	–	–	> 50	–
O=C(CCNc1nc2cc(Cl)ccc2o1)N1CCCC1	2.3	81.1	> 50	–
CC(CC(=O)N1CCCC1)Sc1nc2cc(Cl)ccc2o1 (stereo not drawn)	8.6	165.1	4	–
O=C(CCSc1nc2cnccc2o1)N1CCCC1	0.6	3.1	35.1	–
O=C(CCSc1nc2cc(Cl)ccc2o1)N1CCOCC1	2.2	36.5	11.4	–
COc1ccc2oc(SCCC(=O)N3CCCC3)nc2c1	6.1	197.8	4	–
O=C(CCSc1nc2cc(Cl)ccc2o1)N1CCS(=O)(=O)CC1	0.4	2.3	> 50	–
Clc1ccc2oc(SCCCN3CCCC3)nc2c1	1.9	10.4	42.6	–
Cc1nc(SCCC(=O)N2CCCC2)oc1C	< 0.4	3.9	> 50	–
O=C(CCSc1nc2cc(F)c(F)cc2o1)N1CCCC1	6.5	45.9	1.3	–
O=C(CCCc1nc2cc(Cl)ccc2o1)N1CCCC1	1.4	115.2	> 50	–
O=C(CCSc1nc2cc(Cl)ccc2o1)N1CCCCC1	10.7	127.7	2.5	–
O=C(CCSc1nc2ccncc2o1)N1CCCC1	0.9	5.7	> 50	–
CC1CCN(C(=O)CCSc2nc3cc(Cl)ccc3o2)C1 (stereo not drawn)	10.1	90.7	3.1	–
Cc1ccc2oc(SCCC(=O)N3CCCC3)nc2c1	9.3	–	8.4	–
O=C(CCSc1nc2ccccc2o1)N1CCCC1	5.1	161.2	4.4	–
O=C(CCSc1nc2cc(Cl)ccc2s1)N1CCCC1	15	67	15.6	–
CN(CCC(=O)N1CCCC1)c1nc2cc(Cl)ccc2o1	1.9	–	> 50	–
CS(=O)(=O)N1CCN(C(=O)CCSc2nc3cc(Cl)ccc3o2)CC1	0.6	1.4	20.4	–
O=C(CCSc1nc2ncccc2o1)N1CCCC1	0.7	18.6	> 50	–

Structure (SMILES)	CLH [1] [mL/min/g]	CLH [2] [mL/min/g]	IC90 [3] [µM]	other results
CN1CCN(C(=O)CCSc2nc3cc(Cl)ccc3o2)CC1	1.5	41.5	17.2	–
O=C(CCSc1nc2cc(F)ccc2o1)N1CCCC1	5.2	115.2	1.6	–
O=C(CCSc1nc(-c2ccccc2)co1)N1CCCC1	20.9	–	> 50	–
O=C(CCSc1nc2cc(Cl)ccc2o1)NC1CCCC1	11.3	–	> 50	–
CN(C(=O)CCSc1nc2cc(Cl)ccc2o1)C1CCS(=O)(=O)C1 (stereo not drawn)	1.5	0.8	25.4	–
O=C1CCCN1CCCSc1nc2cc(Cl)ccc2o1	4.8	51	6.5	–
O=C(CCCSc1nc2cc(Cl)ccc2o1)N1CCCC1	3.4	124.8	2.3	–
O=C(CCSc1nc2cc(Cl)ccc2o1)N1CCC1	3.7	17.9	> 50	–
O=C(CSCc1nc2cc(Cl)ccc2o1)N1CCCC1	1.5	71.8	> 50	–
CN(C(=O)CCSc1nc2cc(F)ccc2o1)C1CCS(=O)(=O)CC1	< 0.4	0.6	> 50	–
CCN(CC)C(=O)CCSc1nc2cc(Cl)ccc2o1	5.9	107.5	3.9	–
CS(=O)(=O)C1CCN(C(=O)CCSc2nc3cc(Cl)ccc3o2)CC1	0.5	2.6	> 50	–
O=C(CCSc1nc2cc(N3CCOCC3)ccc2o1)N1CCCC1	1.1	18.7	27.2	–
O=C(CCSc1nc2ccc(Cl)cc2o1)N1CCCC1	6.6	109.4	1.6	–
O=C(CCSc1nc2cc(F)ccc2o1)N1CCS(=O)(=O)CC1	0.4	1.5	> 50	–
O=C(CSc1nc2cc(Cl)ccc2o1)N1CCCC1	1.6	153.6	36	–
O=C(CCSc1nc2cc(Cl)ccc2o1)N1CCCC1	5.8	131 to 132	2.8	Stability [9]: Stable; solubility at 4 h [4]: 8 µg/mL (≈ 25.7 µM); IC50 [10]: > 39.8 µM; MIC [11]: 10 µM; Activity [12]: Non-Toxic; MIC [5]: 10 µM; IC50 [13]: > 50 µM; solubility kinetic at 1 h [6]: > 362 µM; Papp at 4 h [7]: 78 ×10⁻⁶ cm/s; IC50 [8]: > 100 µM; Activity [14]: inactive; IC50 [15]: > 39.8 µM
O=C(CCSc1nc2cc(Cl)ccc2o1)N1CCS(=O)(=O)C1	1.7	8.9	> 50	–
O=C(CCSc1nc2c(Cl)cccc2o1)N1CCCC1	15.8	97.9	24.3	–
O=S1(=O)CCCN1CCCSc1nc2cc(Cl)ccc2o1	4.7	115.2	7.7	–
CN(C)C(=O)CCSc1nc2cc(Cl)ccc2o1	2.7	41.8	30	–
O=C(CCSc1nc2cccc(Cl)c2o1)N1CCCC1	13.5	121.9	2.7	–
CSc1nc2cc(Cl)ccc2o1	19	> 46.1	> 50	–
O=C(CCSc1ncc(-c2ccccc2)o1)N1CCCC1	11	176.6	> 50	–
